Tests used:
Assay in all cases: KinaseProfiler Assay
Format in all cases: biochemical
CHK1 = target: T1, CHK1 (Homo sapiens, UniProt O14757); details: read-out: CHK1, % of Control
T1 sequence (O14757 1-476): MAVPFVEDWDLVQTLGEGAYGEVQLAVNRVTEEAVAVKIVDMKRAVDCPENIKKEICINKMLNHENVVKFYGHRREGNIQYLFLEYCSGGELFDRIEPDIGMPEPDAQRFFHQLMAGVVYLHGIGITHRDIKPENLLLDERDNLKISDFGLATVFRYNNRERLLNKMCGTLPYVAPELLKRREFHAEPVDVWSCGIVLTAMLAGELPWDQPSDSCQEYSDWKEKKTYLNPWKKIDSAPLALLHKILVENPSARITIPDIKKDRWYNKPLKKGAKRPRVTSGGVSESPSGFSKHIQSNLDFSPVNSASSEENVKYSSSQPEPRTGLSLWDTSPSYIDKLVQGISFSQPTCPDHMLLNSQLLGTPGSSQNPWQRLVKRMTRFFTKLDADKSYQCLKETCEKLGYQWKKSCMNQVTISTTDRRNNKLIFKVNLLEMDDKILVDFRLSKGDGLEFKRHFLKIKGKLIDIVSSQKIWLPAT

ErbB4 = ErbB4 (Homo sapiens, UniProt Q15303); details: read-out: ErbB4, % of Control
ErbB4, sequence (Q15303 26-1308): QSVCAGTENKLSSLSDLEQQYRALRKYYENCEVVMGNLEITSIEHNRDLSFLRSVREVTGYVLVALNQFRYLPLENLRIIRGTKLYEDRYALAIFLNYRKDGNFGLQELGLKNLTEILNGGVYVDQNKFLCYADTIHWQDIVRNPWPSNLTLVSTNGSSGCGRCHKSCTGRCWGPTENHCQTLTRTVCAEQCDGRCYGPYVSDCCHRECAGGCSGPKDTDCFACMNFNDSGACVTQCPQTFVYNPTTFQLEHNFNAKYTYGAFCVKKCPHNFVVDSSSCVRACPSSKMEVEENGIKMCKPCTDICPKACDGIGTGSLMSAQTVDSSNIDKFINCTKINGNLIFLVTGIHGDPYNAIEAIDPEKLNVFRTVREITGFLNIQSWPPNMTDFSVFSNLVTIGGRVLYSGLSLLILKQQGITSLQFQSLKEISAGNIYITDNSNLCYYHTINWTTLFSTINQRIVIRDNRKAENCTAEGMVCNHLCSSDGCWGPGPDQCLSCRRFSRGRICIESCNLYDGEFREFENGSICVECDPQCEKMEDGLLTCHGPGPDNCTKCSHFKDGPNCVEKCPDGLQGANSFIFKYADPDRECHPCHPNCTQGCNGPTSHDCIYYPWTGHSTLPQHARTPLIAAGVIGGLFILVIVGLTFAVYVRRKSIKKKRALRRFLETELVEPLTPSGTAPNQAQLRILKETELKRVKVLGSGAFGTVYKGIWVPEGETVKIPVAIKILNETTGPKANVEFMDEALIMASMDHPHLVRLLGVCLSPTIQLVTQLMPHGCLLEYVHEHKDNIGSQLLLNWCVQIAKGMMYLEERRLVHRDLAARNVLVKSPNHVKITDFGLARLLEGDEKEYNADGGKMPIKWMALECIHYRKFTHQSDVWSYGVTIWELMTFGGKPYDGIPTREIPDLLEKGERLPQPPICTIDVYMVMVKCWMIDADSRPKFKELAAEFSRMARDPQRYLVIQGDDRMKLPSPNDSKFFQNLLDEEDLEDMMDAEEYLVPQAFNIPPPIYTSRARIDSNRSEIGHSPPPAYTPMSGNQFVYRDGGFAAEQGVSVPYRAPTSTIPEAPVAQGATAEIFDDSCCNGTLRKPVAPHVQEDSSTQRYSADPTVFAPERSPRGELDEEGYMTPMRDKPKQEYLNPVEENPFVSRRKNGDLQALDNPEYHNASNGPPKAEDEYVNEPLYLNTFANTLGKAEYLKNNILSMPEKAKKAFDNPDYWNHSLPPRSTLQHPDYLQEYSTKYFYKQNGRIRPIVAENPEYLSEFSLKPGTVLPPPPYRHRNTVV

PKCα = PKCα (Homo sapiens, UniProt P17252); details: read-out: PKCα, % of Control
EphA2 = EphA2 (Homo sapiens, UniProt P29317); details: read-out: EphA2, % of Control
Pim-1 = Pim-1 (Homo sapiens, UniProt P11309); details: read-out: Pim-1, % of Control
Pim-1, sequence (P11309 whole entry): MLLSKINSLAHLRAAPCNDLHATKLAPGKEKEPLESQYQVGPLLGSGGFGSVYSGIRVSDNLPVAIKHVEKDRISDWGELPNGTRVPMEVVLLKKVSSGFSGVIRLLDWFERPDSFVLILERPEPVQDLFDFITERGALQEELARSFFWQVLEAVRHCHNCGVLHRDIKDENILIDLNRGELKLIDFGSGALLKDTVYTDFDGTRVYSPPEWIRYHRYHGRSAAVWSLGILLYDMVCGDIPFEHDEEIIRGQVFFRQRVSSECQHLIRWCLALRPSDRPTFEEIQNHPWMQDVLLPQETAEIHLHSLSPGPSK

Flt4 = Flt4 (Homo sapiens, UniProt P35916); details: read-out: Flt4, % of Control
Flt4, sequence (P35916 25-1363): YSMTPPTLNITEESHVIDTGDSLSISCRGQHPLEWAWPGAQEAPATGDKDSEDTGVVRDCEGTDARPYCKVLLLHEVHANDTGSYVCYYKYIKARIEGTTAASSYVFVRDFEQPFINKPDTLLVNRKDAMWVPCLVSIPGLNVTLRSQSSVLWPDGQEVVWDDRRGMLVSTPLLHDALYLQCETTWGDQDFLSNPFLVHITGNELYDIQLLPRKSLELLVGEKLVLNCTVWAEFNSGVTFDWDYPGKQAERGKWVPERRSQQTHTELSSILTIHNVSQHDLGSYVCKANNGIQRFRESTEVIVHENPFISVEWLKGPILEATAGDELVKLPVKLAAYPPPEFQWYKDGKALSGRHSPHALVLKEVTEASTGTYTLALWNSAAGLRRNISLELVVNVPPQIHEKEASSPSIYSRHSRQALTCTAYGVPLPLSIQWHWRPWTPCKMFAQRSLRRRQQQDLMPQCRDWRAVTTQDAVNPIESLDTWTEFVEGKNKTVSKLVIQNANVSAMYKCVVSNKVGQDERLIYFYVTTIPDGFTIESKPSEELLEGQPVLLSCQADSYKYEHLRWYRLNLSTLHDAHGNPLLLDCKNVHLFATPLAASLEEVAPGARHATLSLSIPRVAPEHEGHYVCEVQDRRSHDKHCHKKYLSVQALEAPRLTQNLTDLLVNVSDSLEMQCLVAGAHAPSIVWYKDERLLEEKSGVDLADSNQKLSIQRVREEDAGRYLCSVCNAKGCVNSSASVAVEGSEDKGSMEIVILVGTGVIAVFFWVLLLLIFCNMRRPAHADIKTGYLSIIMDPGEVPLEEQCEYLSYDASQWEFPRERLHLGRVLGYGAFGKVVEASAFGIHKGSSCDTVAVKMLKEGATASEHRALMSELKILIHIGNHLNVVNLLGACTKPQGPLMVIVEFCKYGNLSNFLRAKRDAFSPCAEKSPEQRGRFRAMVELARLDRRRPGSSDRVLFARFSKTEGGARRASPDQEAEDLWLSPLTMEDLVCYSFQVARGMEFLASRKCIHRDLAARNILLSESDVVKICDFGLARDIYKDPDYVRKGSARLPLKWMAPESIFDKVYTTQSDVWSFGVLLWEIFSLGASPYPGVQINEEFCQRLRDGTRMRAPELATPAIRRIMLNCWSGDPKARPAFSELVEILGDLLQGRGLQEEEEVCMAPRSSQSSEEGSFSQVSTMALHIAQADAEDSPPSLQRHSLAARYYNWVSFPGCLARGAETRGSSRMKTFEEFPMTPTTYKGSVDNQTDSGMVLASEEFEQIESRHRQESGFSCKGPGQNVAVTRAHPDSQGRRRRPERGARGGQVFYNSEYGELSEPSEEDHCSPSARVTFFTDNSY

CDK5/p35 = CDK5/p35 (Homo sapiens, UniProt Q00535); details: read-out: CDK5/p35, % of Control
CDK9/cyclin T1 = CDK9/cyclin T1 (Homo sapiens, UniProt P50750); details: read-out: CDK9/cyclin T1, % of Control
PI3K gamma = PI3K gamma (Homo sapiens, UniProt P48736); details: 50 μg/ml
GSK3β = GSK3β (Homo sapiens, UniProt P49841); details: read-out: GSK3β, % of Control
GSK3β, sequence (P49841 whole entry): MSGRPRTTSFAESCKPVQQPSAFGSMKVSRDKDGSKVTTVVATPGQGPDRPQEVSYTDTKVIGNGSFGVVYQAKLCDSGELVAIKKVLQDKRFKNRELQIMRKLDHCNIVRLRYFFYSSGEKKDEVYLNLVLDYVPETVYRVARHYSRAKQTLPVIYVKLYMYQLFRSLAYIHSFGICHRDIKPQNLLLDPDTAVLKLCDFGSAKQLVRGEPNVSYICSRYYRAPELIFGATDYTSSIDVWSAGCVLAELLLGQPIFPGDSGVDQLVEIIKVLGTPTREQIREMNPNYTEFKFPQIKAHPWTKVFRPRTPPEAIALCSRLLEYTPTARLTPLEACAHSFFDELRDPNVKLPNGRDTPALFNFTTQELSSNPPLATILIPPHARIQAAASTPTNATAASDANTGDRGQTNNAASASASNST

Hck = Hck (Homo sapiens, UniProt P08631); details: read-out: Hck, % of Control
PKA = PKA (Homo sapiens, UniProt P17612); details: read-out: PKA, % of Control
Fer = Fer (Homo sapiens, UniProt P16591); details: read-out: Fer, % of Control
Fer, sequence (P16591 whole entry): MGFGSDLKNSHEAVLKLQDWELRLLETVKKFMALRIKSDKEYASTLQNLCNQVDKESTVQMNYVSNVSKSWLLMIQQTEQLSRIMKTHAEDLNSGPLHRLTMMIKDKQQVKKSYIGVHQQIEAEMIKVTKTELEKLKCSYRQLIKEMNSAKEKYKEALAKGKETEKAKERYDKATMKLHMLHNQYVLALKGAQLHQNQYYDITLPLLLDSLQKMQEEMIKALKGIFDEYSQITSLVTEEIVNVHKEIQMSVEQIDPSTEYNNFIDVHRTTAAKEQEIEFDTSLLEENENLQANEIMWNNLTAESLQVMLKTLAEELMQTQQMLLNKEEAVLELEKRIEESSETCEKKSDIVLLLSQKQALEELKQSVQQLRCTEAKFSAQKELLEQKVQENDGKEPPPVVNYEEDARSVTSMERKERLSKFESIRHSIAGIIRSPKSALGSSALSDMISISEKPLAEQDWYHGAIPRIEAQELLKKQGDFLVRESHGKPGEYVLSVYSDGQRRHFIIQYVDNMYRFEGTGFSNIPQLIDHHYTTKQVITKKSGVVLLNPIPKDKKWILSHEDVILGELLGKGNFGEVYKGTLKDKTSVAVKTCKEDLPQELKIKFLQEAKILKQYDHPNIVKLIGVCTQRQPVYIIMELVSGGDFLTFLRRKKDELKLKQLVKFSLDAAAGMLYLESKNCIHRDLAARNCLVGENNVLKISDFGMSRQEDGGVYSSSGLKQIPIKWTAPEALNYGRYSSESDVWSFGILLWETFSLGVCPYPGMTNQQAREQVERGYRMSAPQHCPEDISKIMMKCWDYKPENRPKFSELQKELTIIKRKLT

CDK6/cyclinD3 = CDK6/cyclinD3 (Homo sapiens, UniProt Q00534); details: read-out: CDK6/cyclinD3, % of Control
SGK2 = target: T2, SGK2 (Homo sapiens, UniProt Q9HBY8); details: read-out: SGK2, % of Control
T2 sequence (Q9HBY8 1-367): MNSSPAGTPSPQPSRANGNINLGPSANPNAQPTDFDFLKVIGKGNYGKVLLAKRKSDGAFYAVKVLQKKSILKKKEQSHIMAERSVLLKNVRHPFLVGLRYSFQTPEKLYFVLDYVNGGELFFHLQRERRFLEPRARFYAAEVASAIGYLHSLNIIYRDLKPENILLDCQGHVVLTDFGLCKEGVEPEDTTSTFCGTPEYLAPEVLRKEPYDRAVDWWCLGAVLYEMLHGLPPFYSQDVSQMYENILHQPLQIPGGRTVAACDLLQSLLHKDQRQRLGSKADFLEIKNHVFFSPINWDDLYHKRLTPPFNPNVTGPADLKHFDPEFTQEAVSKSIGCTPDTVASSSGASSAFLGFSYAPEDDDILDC

Tie2 = Tie2 (Homo sapiens, UniProt Q02763); details: 50 ug/ml; read-out: Tie2, % of Control
MAPK1 = MAPK1 (Homo sapiens, UniProt P27361); details: read-out: MAPK1, % of Control
MAPK1, sequence (P27361 whole entry): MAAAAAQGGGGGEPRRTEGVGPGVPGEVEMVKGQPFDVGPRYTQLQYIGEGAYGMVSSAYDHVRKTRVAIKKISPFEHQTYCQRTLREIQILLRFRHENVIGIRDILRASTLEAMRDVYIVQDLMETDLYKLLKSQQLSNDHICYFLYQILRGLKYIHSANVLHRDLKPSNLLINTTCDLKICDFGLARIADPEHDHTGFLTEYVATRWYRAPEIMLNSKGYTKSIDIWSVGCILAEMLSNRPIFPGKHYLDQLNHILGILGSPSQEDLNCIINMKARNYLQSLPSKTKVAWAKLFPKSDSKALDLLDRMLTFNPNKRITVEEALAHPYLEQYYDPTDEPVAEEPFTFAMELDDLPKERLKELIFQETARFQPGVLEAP

SMILES: COc1cc(O)c(CC=C(C)C)c(O)c1C(=O)/C=C/c1ccc(O)cc1 [Xanthohumol, xanthohumol]
- remaining activity at 1 µg/mL (CHK1; 1 ug/ml): 121%
- remaining activity at 5 µg/mL (CHK1; 5 ug/ml): 126%
- remaining activity at 25 µg/mL (CHK1; 25 ug/ml): 142%
- remaining activity at 50 µg/mL (CHK1; 50 ug/ml): 149%
- remaining activity at 1 µg/mL (ErbB4; 1 ug/ml): 132%
- remaining activity at 5 µg/mL (ErbB4; 5 ug/ml): 85%
- remaining activity at 25 µg/mL (ErbB4; 25 ug/ml): 52%
- remaining activity at 50 µg/mL (ErbB4; 50 ug/ml): 27%
- remaining activity at 1 µg/mL (PKCα; 1 ug/ml): 100%
- remaining activity at 5 µg/mL (PKCα; 5 ug/ml): 100%
- remaining activity at 25 µg/mL (PKCα; 25 ug/ml): 75%
- remaining activity at 50 µg/mL (PKCα; 50 ug/ml): 83%
- remaining activity at 1 µg/mL (EphA2; 1 ug/ml): 124%
- remaining activity at 50 µg/mL (EphA2; 50 ug/ml): 52%
- remaining activity at 1 µg/mL (Pim-1; 1 ug/ml): 88%
- remaining activity at 5 µg/mL (Pim-1; 5 ug/ml): 35%
- remaining activity at 50 µg/mL (Pim-1; 50 ug/ml): 3%
- remaining activity at 1 µg/mL (Flt4; 1 ug/ml): 74%
- remaining activity at 5 µg/mL (Flt4; 5 ug/ml): 10%
- remaining activity at 25 µg/mL (Flt4; 25 ug/ml): 11%
- remaining activity at 25 µg/mL (CDK5/p35; 25 ug/ml): 41%
- remaining activity at 50 µg/mL (CDK5/p35; 50 ug/ml): 44%
- remaining activity at 1 µg/mL (CDK9/cyclin T1; 1 ug/ml): 110%
- remaining activity at 5 µg/mL (CDK9/cyclin T1; 5 ug/ml): 107%
- remaining activity at 25 µg/mL (CDK9/cyclin T1; 25 ug/ml): 45%
- remaining activity at 50 µg/mL (CDK9/cyclin T1; 50 ug/ml): 31%
- inhibition of PI3K-γ activity (PI3K gamma): more inhibitory to PI3K-γ than to PI3K-β or PI3K-δ
- remaining activity at 1 µg/mL (GSK3β; 1 ug/ml): 120%
- remaining activity at 5 µg/mL (GSK3β; 5 ug/ml): 99%
- remaining activity at 25 µg/mL (GSK3β; 25 ug/ml): 25%
- remaining activity at 50 µg/mL (GSK3β; 50 ug/ml): 3%
- remaining activity at 1 µg/mL (Hck; 1 ug/ml): 85%
- remaining activity at 25 µg/mL (Hck; 25 ug/ml): 17%
- remaining activity at 1 µg/mL (PKA; 1 ug/ml): 105%
- remaining activity at 5 µg/mL (PKA; 5 ug/ml): 109%
- remaining activity at 25 µg/mL (PKA; 25 ug/ml): 98%
- remaining activity at 50 µg/mL (PKA; 50 ug/ml): 21%
- remaining activity at 1 µg/mL (Fer; 1 ug/ml): 55%
- remaining activity at 5 µg/mL (Fer; 5 ug/ml): 20%
- remaining activity at 25 µg/mL (Fer; 25 ug/ml): 10%
- remaining activity at 50 µg/mL (Fer; 50 ug/ml): 1%
- remaining activity at 1 µg/mL (CDK6/cyclinD3; 1 ug/ml): 110%
- remaining activity at 5 µg/mL (CDK6/cyclinD3; 5 ug/ml): 79%
- remaining activity at 25 µg/mL (CDK6/cyclinD3; 25 ug/ml): 23%
- remaining activity at 50 µg/mL (CDK6/cyclinD3; 50 ug/ml): 7%
- remaining activity at 1 µg/mL (SGK2; 1 ug/ml): 130%
- remaining activity at 5 µg/mL (SGK2; 5 ug/ml): 110%
- remaining activity at 50 µg/mL (SGK2; 50 ug/ml): -4%
- remaining activity at 50 µg/mL (Tie2): 35%
- remaining activity at 5 µg/mL (MAPK1; 5 ug/ml): 64%
- remaining activity at 25 µg/mL (MAPK1; 25 ug/ml): 19%
- remaining activity at 50 µg/mL (MAPK1; 50 ug/ml): 17%
